# “And” between values parts separate entries of the source, which are not always exact repeats. Equal values may be shown once.
# Tested on: 521955-158-R2-J5-PDC complex spheroid growth
# Test: Anticancer human tumor 521955-158-R2-J5-PDC patient-derived pancreatic carcinoma cell line growth inhibition [AhR]
# Settings: for viability, T/C: stronger effect = lower value
# Method in brief: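 Complex tumor spheroids co-cultured with HUVEC and human MSC stroma; AhR antagonists tested in combination with standard-of-care and investigational agents. Top concentration at or near clinical Cmax (else 10 microM), half-log dilutions; growth expressed as percent test/control.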
# [1] = curve of first compound, second compound 0.1 µM
# [2] = curve of first compound, second compound 0.316 µM
# [3] = curve of first compound, second compound 1 µM
# [4] = curve of first compound, second compound 3.16 µM
# [5] = curve of first compound, second compound 10 µM
# [6] = second compound 0.1 µM, first compound 0.0316 µM
# [7] = second compound 0.1 µM, first compound 0.1 µM
# [8] = second compound 0.316 µM, first compound 0.0316 µM
# [9] = second compound 0.316 µM, first compound 0.1 µM
# [10] = second compound 1 µM, first compound 0.0316 µM
# [11] = second compound 1 µM, first compound 0.1 µM
# [12] = second compound 3.16 µM, first compound 0.0316 µM
# [13] = second compound 3.16 µM, first compound 0.1 µM
# [14] = second compound 10 µM, first compound 0.0316 µM
# [15] = second compound 10 µM, first compound 0.1 µM
# 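Throughout, for viability, T/C: spheroids mix tumor cells with HUVEC endothelium and human MSC stroma; luminescence taken as viability surrogate after a week of drug exposure.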
structure (smiles),measurement,setting,value
CC[C@@]1(O)C(=O)OCc2c1cc1n(c2=O)Cc2cc3c(CN(C)C)c(O)ccc3nc2-1 + Cc1ccccc1N=Nc1ccc(NC(=O)c2ccnn2C)c(C)c1,IC50,[1],27.2 nM
same,IC50,[2],17.5 nM
same,IC50,[3],26.9 nM
same,IC50,[4],22.2 nM
same,IC50,[5],43.9 nM
same,"viability, T/C","second compound 0.1 µM, first compound 0.000316 µM",76.7%
same,"viability, T/C","second compound 0.1 µM, first compound 0.001 µM",79.3%
same,"viability, T/C","second compound 0.1 µM, first compound 0.00316 µM",89.5%
same,"viability, T/C","second compound 0.1 µM, first compound 0.01 µM",78.6%
same,"viability, T/C",[6],45.7%
same,"viability, T/C",[7],23%
same,"viability, T/C","second compound 0.316 µM, first compound 0.000316 µM",92.1%
same,"viability, T/C","second compound 0.316 µM, first compound 0.001 µM",100%
same,"viability, T/C","second compound 0.316 µM, first compound 0.00316 µM",88.8%
same,"viability, T/C","second compound 0.316 µM, first compound 0.01 µM",64.7%
same,"viability, T/C",[8],34.7%
same,"viability, T/C",[9],25.2%
same,"viability, T/C","second compound 1 µM, first compound 0.000316 µM",98.2%
same,"viability, T/C","second compound 1 µM, first compound 0.001 µM",113%
same,"viability, T/C","second compound 1 µM, first compound 0.00316 µM",114%
same,"viability, T/C","second compound 1 µM, first compound 0.01 µM",87.8%
same,"viability, T/C",[10],44.6%
same,"viability, T/C",[11],22.9%
same,"viability, T/C","second compound 3.16 µM, first compound 0.000316 µM",119%
same,"viability, T/C","second compound 3.16 µM, first compound 0.001 µM",131%
same,"viability, T/C","second compound 3.16 µM, first compound 0.00316 µM",122%
same,"viability, T/C","second compound 3.16 µM, first compound 0.01 µM",77.3%
same,"viability, T/C",[12],41.1%
same,"viability, T/C",[13],25.6%
same,"viability, T/C","second compound 10 µM, first compound 0.000316 µM",130%
same,"viability, T/C","second compound 10 µM, first compound 0.001 µM",122%
same,"viability, T/C","second compound 10 µM, first compound 0.00316 µM",131%
same,"viability, T/C","second compound 10 µM, first compound 0.01 µM",107%
same,"viability, T/C",[14],59.9%
same,"viability, T/C",[15],26.3%
Nc1ccn(C2OC(CO)C(O)C2(F)F)c(=O)n1 (configuration not stated) + Cc1cncc(-c2nc(NCCc3c[nH]c4ccccc34)c3ncn(C(C)C)c3n2)c1,IC50,[1],571 nM
same,IC50,[2],501 nM
same,IC50,[3],860 nM
same,IC50,[4],967 nM
same,IC50,[5],604 nM
same,"viability, T/C",[6],67.6%
same,"viability, T/C",[7],65.7%
same,"viability, T/C","second compound 0.1 µM, first compound 0.316 µM",62.2%
same,"viability, T/C","second compound 0.1 µM, first compound 1 µM",38.4%
same,"viability, T/C","second compound 0.1 µM, first compound 3.16 µM",31.8%
same,"viability, T/C","second compound 0.1 µM, first compound 10 µM",24.7%
same,"viability, T/C",[8],87.5%
same,"viability, T/C",[9],80.8%
same,"viability, T/C","second compound 0.316 µM, first compound 0.316 µM",58.9%
same,"viability, T/C","second compound 0.316 µM, first compound 1 µM",34.8%
same,"viability, T/C","second compound 0.316 µM, first compound 3.16 µM",33.6%
same,"viability, T/C","second compound 0.316 µM, first compound 10 µM",22.3%
same,"viability, T/C",[10],104%
same,"viability, T/C",[11],86%
same,"viability, T/C","second compound 1 µM, first compound 0.316 µM",70.4%
same,"viability, T/C","second compound 1 µM, first compound 1 µM",42.6%
same,"viability, T/C","second compound 1 µM, first compound 3.16 µM",38.3%
same,"viability, T/C","second compound 1 µM, first compound 10 µM",25.3%
same,"viability, T/C",[12],116%
same,"viability, T/C",[13],97.5%
same,"viability, T/C","second compound 3.16 µM, first compound 0.316 µM",73.7%
same,"viability, T/C","second compound 3.16 µM, first compound 1 µM",47.7%
same,"viability, T/C","second compound 3.16 µM, first compound 3.16 µM",36%
same,"viability, T/C","second compound 3.16 µM, first compound 10 µM",26.1%
same,"viability, T/C",[14],151%
same,"viability, T/C",[15],99.3%
same,"viability, T/C","second compound 10 µM, first compound 0.316 µM",67.2%
same,"viability, T/C","second compound 10 µM, first compound 1 µM",36%
same,"viability, T/C","second compound 10 µM, first compound 3.16 µM",27.7%
same,"viability, T/C","second compound 10 µM, first compound 10 µM",22.2%
CC1(C)CCC(CN2CCN(c3ccc(C(=O)NS(=O)(=O)c4ccc(NCC5CCOCC5)c([N+](=O)[O-])c4)c(Oc4cnc5[nH]ccc5c4)c3)CC2)=C(c2ccc(Cl)cc2)C1,"viability, T/C",compound 0.0316 µM,96.5% and 101% and 99%
same,"viability, T/C",compound 0.1 µM,71.9% and 97.7% and 79.6%
same,"viability, T/C",compound 0.316 µM,105% and 111% and 106%
same,"viability, T/C",compound 1 µM,90.7% and 91% and 77.8%
same,"viability, T/C",compound 3.16 µM,96% and 87.3% and 90.5%
same,"viability, T/C",compound 10 µM,73.7% and 91.8% and 83.6%
same,IC50,curve of compound,> 10000 nM
CCc1c2c(nc3ccc(O)cc13)-c1cc3c(c(=O)n1C2)COC(=O)[C@]3(O)CC + Cc1ccccc1N=Nc1ccc(NC(=O)c2ccnn2C)c(C)c1,IC50,[1],4.12 nM
same,IC50,[2],4.8 nM
same,IC50,[3],4.66 nM
same,IC50,[4],6.4 nM
same,IC50,[5],7.1 nM
same,"viability, T/C","second compound 0.1 µM, first compound 0.000949 µM",65.2%
same,"viability, T/C","second compound 0.1 µM, first compound 0.003 µM",56%
same,"viability, T/C","second compound 0.1 µM, first compound 0.00949 µM",36.5%
same,"viability, T/C","second compound 0.1 µM, first compound 0.03 µM",27%
same,"viability, T/C","second compound 0.1 µM, first compound 0.0949 µM",18.6%
same,"viability, T/C","second compound 0.1 µM, first compound 0.3 µM",13.8%
same,"viability, T/C","second compound 0.316 µM, first compound 0.000949 µM",74.3%
same,"viability, T/C","second compound 0.316 µM, first compound 0.003 µM",60.9%
same,"viability, T/C","second compound 0.316 µM, first compound 0.00949 µM",34.1%
same,"viability, T/C","second compound 0.316 µM, first compound 0.03 µM",22.3%
same,"viability, T/C","second compound 0.316 µM, first compound 0.0949 µM",17%
same,"viability, T/C","second compound 0.316 µM, first compound 0.3 µM",12.9%
same,"viability, T/C","second compound 1 µM, first compound 0.000949 µM",91.7%
same,"viability, T/C","second compound 1 µM, first compound 0.003 µM",61.8%
same,"viability, T/C","second compound 1 µM, first compound 0.00949 µM",30.2%
same,"viability, T/C","second compound 1 µM, first compound 0.03 µM",23.2%
same,"viability, T/C","second compound 1 µM, first compound 0.0949 µM",17.5%
same,"viability, T/C","second compound 1 µM, first compound 0.3 µM",14.3%
same,"viability, T/C","second compound 3.16 µM, first compound 0.000949 µM",95.3%
same,"viability, T/C","second compound 3.16 µM, first compound 0.003 µM",78.3%
same,"viability, T/C","second compound 3.16 µM, first compound 0.00949 µM",33.9%
same,"viability, T/C","second compound 3.16 µM, first compound 0.03 µM",23.5%
same,"viability, T/C","second compound 3.16 µM, first compound 0.0949 µM",15.3%
same,"viability, T/C","second compound 3.16 µM, first compound 0.3 µM",11.7%
same,"viability, T/C","second compound 10 µM, first compound 0.000949 µM",114%
same,"viability, T/C","second compound 10 µM, first compound 0.003 µM",89.8%
same,"viability, T/C","second compound 10 µM, first compound 0.00949 µM",35.1%
same,"viability, T/C","second compound 10 µM, first compound 0.03 µM",24.1%
same,"viability, T/C","second compound 10 µM, first compound 0.0949 µM",16.2%
same,"viability, T/C","second compound 10 µM, first compound 0.3 µM",11.5%

# Reference: PubChem BioAssay AID1918998 (Molecular Pharmacology Branch, DTP, NCI, 2023)
